Assay results reported in publication PMC8704891, “Natural Benzo/Acetophenones as Leads for New Synthetic Acetophenone Hybrids Containing a 1,2,3-Triazole Ring as Potential Antifouling Agents” (Marine Drugs, 2021).
“Also recorded” adds a separate entry of the source. Where two headings read alike, the source gives them in different places.

Legend:
[1] = system: Roseobacter litoralis CECT 5395; test: Biofilm-forming marine bacteria growth inhibition; assay type: cell-based; conditions: for EC50: Roseobacter litoralis, CECT5395; for R. litoralis biofilm growth inhibition: screening at 15 μM, 24 h, vs negative control (Dunnett, p < 0.01)
Description: Five strains of marine biofilm-forming bacteria from the Spanish Type Culture Collection (CECT): Cobetia marina CECT 4278, Vibrio harveyi CECT 525, Halomonas aquamarina CECT 5000, Pseudoalteromonas atlantica CECT 570, and Roseobacter litoralis CECT 5395 were selected for antibacterial screening. The experimental procedure was performed according to the previously reported. Briefly, bacteria were inoculated and incubated for 24 h at 26 °C in marine broth (Difco) at an initial density of 0.1 (OD600) in 96-well flat-bottom microtiter plates and exposed to the test compounds at 15 μM. Bacterial growth inhibition in the presence of the compounds was determined in quadruplicate at 600 nm using a microplate reader (BioTek Synergy HT, Winooski, VT, USA). Negative and positive controls used were a solution of marine broth with 0.1% DMSO, and a solution of marine broth with penicillin–streptomycin–neomycin, respectively. Bacterial growth inhibition calculations were made based in the formula ((Mc–Mt)/Mc) × 100, where Mc is the mean of the four replicates from negative control, and Mt is the mean of four replicates from each of the tested compounds.
(§1) Data from anti-settlement, antibacterial, and anti-microalgal bioassay were analyzed by one-way analysis of variance (ANOVA), followed by a multi-comparisons Dunnett’s test against negative control. For all of the bioassays, the half-maximum response concentration (EC50) values for each compound, when applicable, were calculated using probit regression analysis. Significance was considered at p < 0.01, and 95% lower and upper confidence limits (95% LCL; UCL). The software IBM SPSS Statistics 26 (Armonk, New York, NY, USA) was used for statistical analysis.

[2] = system: Ulva pertusa; set-up: method as in doi:10.3989/scimar.04638.13A; conditions: cited from earlier work
[3] = Mussel larvae anti-settlement bioassay; assay type: in vivo; conditions: Mytilus galloprovincialis (mussel) plantigrade larvae, in vivo; mussel plantigrade larvae; highest concentration tested 200 μM; read-out: LC50 (µM), median lethal dose
Description: (§2) Mussel (Mytilus galloprovincialis) plantigrades were collected in juvenile aggregates during low neap tides at Memória beach, Matosinhos, Portugal (41°13′59″ N; 8°43′28″ W). In the laboratory, mussel plantigrade larvae (0.5–2 mm) were isolated in a binocular magnifier (Olympus SZX2-ILLT, Tokyo, Japan) to a petri dish with filtered seawater, and those with functional foot and competent exploring behavior were selected to the bioassays. Compounds were screened at 50 µM in 24-well microplates with 4-well replicates per condition and 5 larvae per well, for 15 h, in the darkness at 18 ± 1 °C, according to the previously reported. All compounds that caused more than 60% of settlement inhibition (≤40% of settlement) in the screening bioassay were considered active and selected for the determination of the semi-maximum response concentration that inhibited 50% of the larval settlement (EC50), at compounds concentrations of 3.125, 6.25, 12.5, 25, 50, 100, and 200 μM.
as §1

[4] = system: Mytilus galloprovincialis plantigrade larvae; test: Mussel larvae anti-settlement bioassay; assay type: in vivo; conditions: for EC50: Mytilus galloprovincialis, dose-response 3.125-200 μM; for percentage of settlement: screening at 50 μM, 15 h
Description: as §2, §1

[5] = system: Artemia salina nauplii; set-up: method as in PMID 31669574; conditions: 25 and 50 μM; cited from earlier work
[6] = system: Artemia salina nauplii; test: Artemia salina nauplii lethality ecotoxicity bioassay; assay type: in vivo; conditions: 25 and 50 μM, 48 h exposure
Description: The brine shrimp (Artemia salina) nauplii lethality test was used to determine the ecotoxicity of 6a, 7a, and 9a to non-target organisms. Briefly, Artemia salina eggs were allowed to hatch in seawater for 48 h at 25 °C. Bioassays were performed in 96-well microplates with 15–20 nauplii per well and 200 μL of the compounds test solution. Test solutions were prepared in filtered seawater at concentrations of 25 and 50 μM. All tests included K2Cr2O7 as positive control and DMSO as a negative control. Bioassays run in the dark at 25 °C, and the percentage of mortality was determined after 48 h of exposure.

[7] = system: Navicula sp.; test: Biofilm-forming marine diatom growth inhibition; assay type: cell-based; conditions: for EC50: dose-response
Description: The anti-microalgal activity of the most promising compounds was also evaluated against a benthic marine diatom, Navicula sp., purchased from the Spanish Collection of Algae (BEA), according to the previously reported. Briefly, diatom cells were inoculated in f/2 medium (Sigma) at an initial concentration of 2–4 × 10^6 cells·mL^−1 and grown in 96-well flat-bottom microtiter plates for 14 days in continuous light at 20 °C. […] Growth inhibition was calculated based in the formula ((Mc–Mt)/Mc) × 100, where Mc is the mean of the cell counts of the four replicates from negative control, and Mt is the mean of the cell counts of the four replicates from each of the tested compounds. Positive control with cycloheximide (3.55 μM) and negative control with f/2 medium 0.1% DMSO were included.
as §1

[8] = dose-response, read-out: EC50 (µM), R. litoralis growth
[9] = dose-response, read-out: EC50 (µg·mL^−1), R. litoralis growth
[10] = 95% CI in brackets, read-out: EC50 (µM), concentration that inhibited 50% of larval settlement

COc1cc(C(C)=O)cc(OC)c1OCc1cn(-c2ccc(F)cc2)nn1 [Compound 4a, 1-(4-((1-(4-Fluorophenyl)-1H-1,2,3-triazol-4-yl)methoxy)-3,5-dimethoxyphenyl)ethan-1-one]
melting point: 160 to 160.5 °C

CC(=O)c1ccc(OCc2cn(-c3ccc(Br)cc3)nn2)cc1O [Compound 5b, 1-(4-((1-(4-Bromophenyl)-1H-1,2,3-triazol-4-yl)methoxy)-2-hydroxyphenyl)ethan-1-one]
melting point: 183.3 to 184.8 °C

CC(=O)c1ccc(OCc2cn(Cc3ccc(C#N)cc3)nn2)cc1O [Compound 3b, 4-((4-((4-Acetyl-3-hydroxyphenoxy)methyl)-1H-1,2,3-triazol-1-yl)methyl)benzonitrile]
melting point: 153.8 to 155.6 °C
EC50 [1, 8]: 49.8 µM
EC50 [1, 9]: 17.4 µg/mL
R. litoralis biofilm growth inhibition [1]: significantly inhibit

COc1ccc(-n2cc(COc3ccc(C(C)=O)c(O)c3)nn2)cc1 [Compound 8b, 1-(2-Hydroxy-4-((1-(4-methoxyphenyl)-1H-1,2,3-triazol-4-yl)methoxy)phenyl)ethan-1-one]
melting point: 115.1 to 117.5 °C

CC(=O)c1ccc(O)cc1O [2,4-dihydroxyacetophenone]
inhibition of spore attachment [2]: significantly inhibit

COc1cc(C(C)=O)cc(OC)c1OCc1cn(Cc2ccc(C#N)cc2)nn1 [Compound 3a, 4-((4-((4-Acetyl-2,6-dimethoxyphenoxy)methyl)-1H-1,2,3-triazol-1-yl)methyl)benzonitrile]
melting point: 149.5 to 149.8 °C

CC(=O)c1ccc(OCc2cn(CCCO)nn2)cc1O [Compound 7b, 1-(2-Hydroxy-4-((1-(3-hydroxypropyl)-1H-1,2,3-triazol-4-yl)methoxy)phenyl)ethan-1-one]
melting point: 69.2 to 70.5 °C
EC50 (µM), R. litoralis growth ([1]; dose-response): not possible to estimate
R. litoralis biofilm growth inhibition [1]: significantly inhibit

COc1cc(C(C)=O)cc(OC)c1OCc1cn(-c2ccc(Cl)cc2)nn1 [Compound 6a, 1-(4-((1-(4-Chlorophenyl)-1H-1,2,3-triazol-4-yl)methoxy)-3,5-dimethoxyphenyl)ethan-1-one]
LC50 at 15 h [3]: > 200 µM
EC50 [4, 10]: 28.9 µM
percentage of settlement [4]: ≤ 40%

CC(=O)c1ccc(OCc2cn(-c3ccc(F)cc3)nn2)cc1O [Compound 4b, 1-(4-((1-(4-Fluorophenyl)-1H-1,2,3-triazol-4-yl)methoxy)-2-hydroxyphenyl)ethan-1-one]
melting point: 145.9 to 148 °C
EC50 [1, 8]: 105 µM
EC50 [1, 9]: 34.4 µg/mL
R. litoralis biofilm growth inhibition [1]: significantly inhibit

N#Cc1c(-c2ccc(Cl)cc2)[nH]c(C(F)(F)F)c1Br [ECONEA®]
lethality to Artemia salina [5]: 100%

COc1cc(C(C)=O)cc(OC)c1OCc1cn([C@H]2O[C@@H](CO)[C@H](O)[C@@H](O)[C@@H]2NC(C)=O)nn1 [Compound 9a, N-((2S,3S,4S,5R,6S)-2-(4-((4-Acetyl-2,6-dimethoxyphenoxy)methyl)-1H-1,2,3-triazol-1-yl)-4,5-dihydroxy-6-(hydroxymethyl)tetrahydro-2H-pyran-3-yl)acetamide]
mortality rate of Artemia salina nauplii [6]: not significantly different from negative control; also recorded: non-toxic
LC50 at 15 h [3]: > 200 µM
EC50 [4, 10]: 20.7 µM
percentage of settlement [4]: ≤ 40%

CC(=O)c1ccc(OCc2cn(-c3ccc(Cl)cc3)nn2)cc1O [Compound 6b, 1-(4-((1-(4-Chlorophenyl)-1H-1,2,3-triazol-4-yl)methoxy)-2-hydroxyphenyl)ethan-1-one]
melting point: 157 to 159.1 °C

COc1ccc(-n2cc(COc3c(OC)cc(C(C)=O)cc3OC)nn2)cc1 [Compound 8a, 1-(3,5-Dimethoxy-4-((1-(4-methoxyphenyl)-1H-1,2,3-triazol-4-yl)methoxy)phenyl)ethan-1-one]
melting point: 99.5 to 102.3 °C

COc1cc(C(C)=O)cc(OC)c1OCc1cn(CCCO)nn1 [Compound 7a, 1-(4-((1-(3-Hydroxypropyl)-1H-1,2,3-triazol-4-yl)methoxy)-3,5-dimethoxyphenyl)ethan-1-one]
mortality rate of Artemia salina nauplii [6]: not significantly different from negative control; also recorded: non-toxic
Navicula sp. growth inhibition screening ([7]; 15 µM (Figure 5 legend), 14 days): showed inhibitory activity
EC50 ([7]; read-out: EC50 (µM), Navicula sp. growth): 26.7 µM
EC50 ([7]; read-out: EC50 (µg·mL^−1), Navicula sp. growth): 8.96 µg/mL
LC50 at 15 h [3]: > 200 µM
EC50 [4, 10]: 40.1 µM
EC50 ([4]; read-out: EC50 (µg·mL^−1), larval settlement): < 25 µg/mL
percentage of settlement [4]: ≤ 40%

COc1cc(C(C)=O)cc(OC)c1OCc1cn(-c2ccc(Br)cc2)nn1 [Compound 5a, 1-(4-((1-(4-Bromophenyl)-1H-1,2,3-triazol-4-yl)methoxy)-3,5-dimethoxyphenyl)ethan-1-one]
melting point: 159.1 to 160.4 °C
